The values that follow come from PMC10490225, “Genome-Wide Characterization of Soybean Hexokinase Genes Reveals a Positive Role of GmHXK15 in Alkali Stress Response” (Plants, 2023).

The test system of the assay is T1, GmHXK15.
T1 construct: CDS in pET32a(+) (NcoI/XhoI), His-tagged fusion, E. coli Rosetta / DE3, Ni-NTA
The assay is described as follows: initial velocity, Michaelis-Menten / Eadie-Hofstee. It is filed as biochemical, Glycine max. The note with it: assay pH, temperature and ATP not stated.

Regarding `OCC1(O)OC[C@@H](O)[C@@H](O)[C@@H]1O` (some centres unmarked) [fructose], the Km (varied fructose) was found to be 1300 µM.
Consider `OC[C@H]1OC(O)[C@H](O)[C@@H](O)[C@@H]1O` (some centres unmarked) [glucose], for which the Km (varied glucose) was determined as 60 µM.
